Measured values published in BindingDB's records for PubMed 9103528 (Pharmacia & Upjohn, 1997).

How the values were obtained:
[1] = biological target: T1, Alpha-1A adrenergic receptor (Rattus norvegicus, UniProt P43140)
T1 sequence (P43140 whole entry): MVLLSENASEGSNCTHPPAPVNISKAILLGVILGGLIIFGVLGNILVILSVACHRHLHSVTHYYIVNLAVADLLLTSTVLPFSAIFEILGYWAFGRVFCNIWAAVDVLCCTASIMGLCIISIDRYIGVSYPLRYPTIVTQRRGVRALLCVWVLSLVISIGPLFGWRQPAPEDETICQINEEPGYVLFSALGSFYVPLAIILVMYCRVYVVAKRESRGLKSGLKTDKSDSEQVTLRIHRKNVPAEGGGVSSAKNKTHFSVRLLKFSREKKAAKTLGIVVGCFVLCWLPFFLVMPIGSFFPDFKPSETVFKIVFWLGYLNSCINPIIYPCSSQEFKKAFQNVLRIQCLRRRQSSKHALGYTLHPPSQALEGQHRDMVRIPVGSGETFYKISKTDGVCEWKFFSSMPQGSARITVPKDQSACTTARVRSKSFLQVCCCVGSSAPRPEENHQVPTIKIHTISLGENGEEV

[2] = biological target: T2, Muscarinic acetylcholine receptor M2 (Rattus norvegicus, UniProt P10980)
T2 sequence (P10980 whole entry): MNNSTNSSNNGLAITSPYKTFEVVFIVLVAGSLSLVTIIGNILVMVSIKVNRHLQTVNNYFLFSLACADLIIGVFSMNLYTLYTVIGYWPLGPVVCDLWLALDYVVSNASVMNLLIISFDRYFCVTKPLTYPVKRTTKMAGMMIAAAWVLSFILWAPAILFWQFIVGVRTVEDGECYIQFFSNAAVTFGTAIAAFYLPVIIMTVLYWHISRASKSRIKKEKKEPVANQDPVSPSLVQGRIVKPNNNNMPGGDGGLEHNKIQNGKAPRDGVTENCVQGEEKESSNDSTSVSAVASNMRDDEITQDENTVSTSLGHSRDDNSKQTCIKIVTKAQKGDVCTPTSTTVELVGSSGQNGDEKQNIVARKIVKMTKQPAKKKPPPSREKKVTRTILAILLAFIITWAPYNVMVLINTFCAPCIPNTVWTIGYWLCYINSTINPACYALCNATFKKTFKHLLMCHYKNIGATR

[3] = biological target: 5-hydroxytryptamine receptor 2A (Rattus norvegicus, UniProt P14842)
[4] = biological target: T3, 5-hydroxytryptamine receptor 1A (Rattus norvegicus, UniProt P19327)
T3 sequence (P19327 whole entry): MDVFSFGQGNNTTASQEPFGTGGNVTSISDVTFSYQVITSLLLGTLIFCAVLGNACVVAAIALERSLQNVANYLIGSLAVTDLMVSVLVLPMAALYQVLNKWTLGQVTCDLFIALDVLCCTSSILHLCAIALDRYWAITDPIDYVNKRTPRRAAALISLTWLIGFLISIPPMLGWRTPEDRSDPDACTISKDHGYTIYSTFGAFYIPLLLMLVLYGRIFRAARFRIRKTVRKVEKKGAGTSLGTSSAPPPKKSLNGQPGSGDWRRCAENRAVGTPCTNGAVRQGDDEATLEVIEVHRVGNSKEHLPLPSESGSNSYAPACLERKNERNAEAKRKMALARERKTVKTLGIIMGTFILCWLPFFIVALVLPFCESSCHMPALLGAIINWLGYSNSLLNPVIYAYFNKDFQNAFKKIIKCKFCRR

D(2) dopamine receptor = D(2) dopamine receptor (Rattus norvegicus, UniProt P61169)
[5] = biological target: T4, Alpha-2C adrenergic receptor (Rattus norvegicus, UniProt P22086)
T4 sequence (P22086 whole entry): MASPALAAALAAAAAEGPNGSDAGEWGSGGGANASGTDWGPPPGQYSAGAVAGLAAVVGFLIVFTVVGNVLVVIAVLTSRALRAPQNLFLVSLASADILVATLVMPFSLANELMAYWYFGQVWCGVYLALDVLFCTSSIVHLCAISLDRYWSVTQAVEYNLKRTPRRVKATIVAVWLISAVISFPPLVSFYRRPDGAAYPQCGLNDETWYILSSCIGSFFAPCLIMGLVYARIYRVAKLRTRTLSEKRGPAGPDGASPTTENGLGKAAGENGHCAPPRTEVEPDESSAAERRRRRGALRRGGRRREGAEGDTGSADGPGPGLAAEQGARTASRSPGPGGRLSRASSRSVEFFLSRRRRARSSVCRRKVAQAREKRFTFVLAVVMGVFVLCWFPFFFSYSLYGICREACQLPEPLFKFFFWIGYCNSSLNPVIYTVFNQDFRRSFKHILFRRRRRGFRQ

5-hydroxytryptamine receptor 2A, sequence (P14842 whole entry): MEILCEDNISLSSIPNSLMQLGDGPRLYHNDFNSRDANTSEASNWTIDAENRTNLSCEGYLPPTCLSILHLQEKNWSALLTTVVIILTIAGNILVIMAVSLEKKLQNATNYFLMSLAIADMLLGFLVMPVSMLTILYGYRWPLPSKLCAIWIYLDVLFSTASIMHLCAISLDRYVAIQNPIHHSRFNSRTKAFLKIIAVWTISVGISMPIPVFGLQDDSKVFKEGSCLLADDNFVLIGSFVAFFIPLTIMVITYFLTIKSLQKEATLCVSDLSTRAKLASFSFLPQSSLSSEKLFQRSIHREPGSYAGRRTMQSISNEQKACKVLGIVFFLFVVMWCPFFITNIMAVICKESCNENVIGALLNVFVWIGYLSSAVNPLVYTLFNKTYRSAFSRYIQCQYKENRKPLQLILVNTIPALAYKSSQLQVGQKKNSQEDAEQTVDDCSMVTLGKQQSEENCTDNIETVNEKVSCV
D(2) dopamine receptor, sequence (P61169 whole entry): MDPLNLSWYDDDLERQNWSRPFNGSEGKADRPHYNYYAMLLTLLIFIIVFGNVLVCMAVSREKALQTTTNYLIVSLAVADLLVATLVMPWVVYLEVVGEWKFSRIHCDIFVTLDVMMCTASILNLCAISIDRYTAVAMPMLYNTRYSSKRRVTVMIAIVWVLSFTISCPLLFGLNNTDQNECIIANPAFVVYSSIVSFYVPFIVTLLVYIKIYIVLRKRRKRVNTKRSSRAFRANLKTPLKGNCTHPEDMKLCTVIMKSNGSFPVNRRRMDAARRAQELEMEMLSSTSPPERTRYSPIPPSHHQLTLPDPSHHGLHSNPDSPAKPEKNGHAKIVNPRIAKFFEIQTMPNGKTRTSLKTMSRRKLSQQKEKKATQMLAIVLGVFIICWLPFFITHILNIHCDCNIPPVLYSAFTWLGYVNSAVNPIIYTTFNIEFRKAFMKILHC

Ki [1]: 0.038 µM
Ki [2]: 0.678 µM
Ki [3]: 0.0058 µM
Ki [4]: 0.134 µM
Ki (D(2) dopamine receptor): 0.199 µM
Ki [5]: 0.181 µM
SMILES: Fc1ccc(N2CCN(CCC3OCCc4ccccc43)CC2)cc1 (stereo unspecified) [CAS_170856-41-4]
